System: stable CHO cells
Test: Cell viability and cell counts of stable CHO cells cultured with capping reagent in the medium
Type: cell-based
Conditions: 0.5 mM DTNB in CD-CHO medium, 72 hrs
Procedure: Ellman's reagent, 5,5′-dithiobis-(2-nitrobeoic acid) (DTNB) was examined as a capping agent to add thionitrobenzoate (TNB). (DTNB is commonly used for assaying free thiol content in proteins. This reagent cannot disrupt disulfide bond but can react with free Cys. It has been used to treat partially-reduced antibody materials to generate four free Cys for drug conjugation.) A CHO cell line stably expressing the cysteine mutant antibody was grown to 4×10e6/ml in CD-CHO medium, then switched to fresh CD-CHO medium, fresh CD-CHO medium with 0.5 mM DTNB, or the triple-low medium as a control. Cells were cultured in these conditions for 72 hrs, cell viability was measured and conditioned medium was harvested. […] Protein expression in the DTNB-containing medium was also 5-fold lower than those in CD-CHO. Antibody purification from ProA column and protein migration in SDS-PAGE from all three culture conditions materials were nearly identical, as shown in FIG. 5A. All three samples in SEC analysis show monomer species, with very little aggregation.
19.8 mM MTFB, dissolved in DMSO, was added to 50 ml cell culture at a final concentration of 0.25 mM for 24 hr. Cell viability was measured and conditioned medium was harvested. […] Antibody HAB08L443C at such condition was subsequently purified by a 1 ml-ProA column (FIG. 12B). […]

In the case of `O=C(O)c1cc(SSc2ccc([N+](=O)[O-])c(C(=O)O)c2)ccc1[N+](=O)[O-]` [DTNB, 5,5′-dithiobis-(2-nitrobeoic acid)], the Cell viability is reported as 40%.
